Test results from the supplement of paper PMC10307832.

Assays:
Assay in all cases: relative viability (nuclei count vs DMSO), 5 days (fraction); higher = more cells survive
[1] = test system: NCI-H1651
Procedure, shortened: (§1)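 Lung cancer cell lines in 1536-well plates got either a single drug or a fixed anchor-drug dose together with five library-drug doses (not always all listed) in √10 steps, by pin tool, on the day after seeding. Nuclei were counted after 5 days, and relative viability is the treated-to-vehicle ratio of nuclei counts. Values are medians of duplicate plates.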

[2] = test system: NCI-H2405
Procedure, shortened: as §1

[3] = test system: NCI-H460
Procedure, shortened: as §1

[4] = test system: NCI-H1734
Procedure, shortened: as §1

[5] = test system: NCI-H1395
Procedure, shortened: as §1

[6] = test system: NCI-H2342
Procedure, shortened: as §1

[7] = test system: COR-L23
Procedure, shortened: as §1

[8] = test system: NCI-H1975
Procedure, shortened: as §1

[9] = test system: NCI-H3122
Procedure, shortened: as §1

[10] = test system: NCI-H2023
Procedure, shortened: as §1

[11] = test system: NCI-H661
Procedure, shortened: as §1

[12] = test system: A-427
Procedure, shortened: as §1

[13] = test system: SW 1573
Procedure, shortened: as §1

[14] = test system: LCLC-97TM1
Procedure, shortened: as §1

[15] = test system: NCI-H838
Procedure, shortened: as §1

[16] = test system: LU99A
Procedure, shortened: as §1

[17] = test system: NCI-H23
Procedure, shortened: as §1

[18] = test system: NCI-H2126
Procedure, shortened: as §1

[19] = test system: ABC-1
Procedure, shortened: as §1

[20] = test system: SK-MES-1
Procedure, shortened: as §1

[21] = test system: ChaGo-K-1
Procedure, shortened: as §1

[22] = test system: LK-2
Procedure, shortened: as §1

[23] = test system: HARA
Procedure, shortened: as §1

[24] = test system: LOU-NH91
Procedure, shortened: as §1

SMILES: Nc1cccc2c1CN(C1CCC(=O)NC1=O)C2=O (stereo not drawn) [Lenalidomide] + O=C(CCCCCCC(=O)Nc1ccccc1)NO [Vorinostat] (partner 1 µM)
- relative viability ([1]; first compound 0.253 µM): 0.624
- relative viability ([1]; first compound 0.8 µM): 0.471
- relative viability ([1]; first compound 2.53 µM): 0.589
- relative viability ([1]; first compound 8 µM): 0.579
- relative viability ([2]; first compound 0.253 µM): 1.12
- relative viability ([2]; first compound 0.8 µM): 0.934
- relative viability ([2]; first compound 2.53 µM): 1.09
- relative viability ([2]; first compound 8 µM): 0.943
- relative viability ([3]; first compound 0.253 µM): 0.815
- relative viability ([3]; first compound 0.8 µM): 0.715
- relative viability ([3]; first compound 2.53 µM): 1.03
- relative viability ([3]; first compound 8 µM): 0.783
- relative viability ([4]; first compound 0.253 µM): 0.855
- relative viability ([4]; first compound 0.8 µM): 0.759
- relative viability ([4]; first compound 2.53 µM): 0.871
- relative viability ([4]; first compound 8 µM): 0.735
- relative viability ([5]; first compound 0.253 µM): 0.807
- relative viability ([5]; first compound 2.53 µM): 0.736
- relative viability ([5]; first compound 8 µM): 0.567
- relative viability ([6]; first compound 0.253 µM): 0.744
- relative viability ([6]; first compound 0.8 µM): 0.599
- relative viability ([6]; first compound 2.53 µM): 0.923
- relative viability ([6]; first compound 8 µM): 0.654
- relative viability ([7]; first compound 0.253 µM): 0.542
- relative viability ([7]; first compound 0.8 µM): 0.408
- relative viability ([7]; first compound 2.53 µM): 0.498
- relative viability ([7]; first compound 8 µM): 0.509
- relative viability ([8]; first compound 0.253 µM): 0.72
- relative viability ([8]; first compound 0.8 µM): 0.768
- relative viability ([8]; first compound 2.53 µM): 0.736
- relative viability ([8]; first compound 8 µM): 0.744
- relative viability ([9]; first compound 0.253 µM): 0.723
- relative viability ([9]; first compound 0.8 µM): 1.05
- relative viability ([9]; first compound 2.53 µM): 0.95
- relative viability ([9]; first compound 8 µM): 0.966
- relative viability ([10]; first compound 0.253 µM): 0.637
- relative viability ([10]; first compound 0.8 µM): 0.732
- relative viability ([10]; first compound 2.53 µM): 0.652
- relative viability ([10]; first compound 8 µM): 0.468
- relative viability ([11]; first compound 0.253 µM): 0.737
- relative viability ([11]; first compound 0.8 µM): 0.828
- relative viability ([11]; first compound 2.53 µM): 0.893
- relative viability ([11]; first compound 8 µM): 0.848
- relative viability ([12]; first compound 0.253 µM): 0.871
- relative viability ([12]; first compound 0.8 µM): 0.898
- relative viability ([12]; first compound 2.53 µM): 0.878
- relative viability ([12]; first compound 8 µM): 0.873
- relative viability ([13]; first compound 0.253 µM): 0.456
- relative viability ([13]; first compound 0.8 µM): 0.822
- relative viability ([13]; first compound 2.53 µM): 0.974
- relative viability ([13]; first compound 8 µM): 0.759
- relative viability ([14]; first compound 0.253 µM): 0.586
- relative viability ([14]; first compound 0.8 µM): 0.581
- relative viability ([14]; first compound 2.53 µM): 0.901
- relative viability ([14]; first compound 8 µM): 0.507
- relative viability ([15]; first compound 0.253 µM): 0.732
- relative viability ([15]; first compound 0.8 µM): 0.692
- relative viability ([15]; first compound 2.53 µM): 0.712
- relative viability ([15]; first compound 8 µM): 0.697
- relative viability ([16]; first compound 0.253 µM): 0.461
- relative viability ([16]; first compound 0.8 µM): 0.425
- relative viability ([16]; first compound 2.53 µM): 0.559
- relative viability ([16]; first compound 8 µM): 0.263
- relative viability ([17]; first compound 0.253 µM): 0.511
- relative viability ([17]; first compound 2.53 µM): 0.747
- relative viability ([17]; first compound 8 µM): 0.407
- relative viability ([18]; first compound 0.253 µM): 0.771
- relative viability ([18]; first compound 0.8 µM): 0.747
- relative viability ([18]; first compound 2.53 µM): 0.832
- relative viability ([18]; first compound 8 µM): 0.658
- relative viability ([19]; first compound 0.253 µM): 1.31
- relative viability ([19]; first compound 0.8 µM): 1.1
- relative viability ([19]; first compound 2.53 µM): 1.36
- relative viability ([19]; first compound 8 µM): 1.46
- relative viability ([20]; first compound 0.253 µM): 0.99
- relative viability ([20]; first compound 0.8 µM): 0.881
- relative viability ([20]; first compound 2.53 µM): 1.19
- relative viability ([20]; first compound 8 µM): 1.06
- relative viability ([21]; first compound 0.253 µM): 0.773
- relative viability ([21]; first compound 0.8 µM): 0.753
- relative viability ([21]; first compound 2.53 µM): 0.838
- relative viability ([21]; first compound 8 µM): 0.694
- relative viability ([22]; first compound 0.253 µM): 0.339
- relative viability ([22]; first compound 0.8 µM): 0.252
- relative viability ([22]; first compound 2.53 µM): 0.353
- relative viability ([22]; first compound 8 µM): 0.189
- relative viability ([23]; first compound 0.253 µM): 0.61
- relative viability ([23]; first compound 2.53 µM): 0.628
- relative viability ([23]; first compound 8 µM): 0.512
- relative viability ([24]; first compound 0.253 µM): 0.928
- relative viability ([24]; first compound 0.8 µM): 0.753
- relative viability ([24]; first compound 2.53 µM): 0.98
- relative viability ([24]; first compound 8 µM): 0.817
